Here are results for 1 compound from patent US20240261294A1, “METHOD FOR TREATING IDH INHIBITOR-RESISTANT SUBJECTS” (Eli Lilly and Company, priority 2021, published 2024).

The target of this experiment is T1, IDH2 R140Q + Q316E trans (Homo sapiens, UniProt P48735, Q316E/R140Q).
T1 construct: expressed in transfected cells; host or cells: U-87 MG
T1 sequence (P48735 40-452 R140Q): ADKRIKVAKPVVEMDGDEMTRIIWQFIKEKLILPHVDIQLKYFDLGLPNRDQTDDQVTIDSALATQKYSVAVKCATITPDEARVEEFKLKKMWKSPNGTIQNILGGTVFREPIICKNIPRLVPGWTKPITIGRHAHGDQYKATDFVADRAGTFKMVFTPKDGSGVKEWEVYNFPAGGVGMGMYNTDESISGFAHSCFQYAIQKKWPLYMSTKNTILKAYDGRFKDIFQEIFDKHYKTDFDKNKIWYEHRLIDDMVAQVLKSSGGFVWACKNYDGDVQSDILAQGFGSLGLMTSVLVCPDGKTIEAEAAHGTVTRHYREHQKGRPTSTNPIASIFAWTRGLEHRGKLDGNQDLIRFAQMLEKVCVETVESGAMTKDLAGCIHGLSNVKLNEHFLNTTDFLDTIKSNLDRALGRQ
T1 sequence (P48735 40-452 Q316E): T1 sequence (P48735 40-452 R140Q) with Q101R, Q277E
Briefly: Inhibition of 2-HG production in IDH2 mutant U-87 MG cells. Format: cell-based.

Substitutions are numbered along the chain they refer to. Where two headings read alike, the source gives them in different places.

As for `C=CC(=O)N1CCN([C@@H](CC2CC2)c2ccc([C@H](C)Nc3ncc4c(n3)N(CC)C(=O)OC4)cc2)CC1` [Compound A, 7-[[(1S)-1-[4-[(1S)-2-cyclopropyl-1-(4-prop-2-enoylpiperazin-1-yl)ethyl]phenyl]ethyl]amino]-1-ethyl-4H-pyrimido[4,5-d][1,3]oxazin-2-one], the IC50 (IDH2 R140Q + Q316E trans, 72 hours incubation, 12.5K cells/well, 150 μl media/well, read-out: IC50, inhibition of 2-HG production) was determined as 5.84 nM and the half-maximal inhibitory concentration (IC50) (IDH2 R140Q_Q316E trans, 16 hours incubation, 50K cells/well, 100 μl media/well, read-out: Relative IC50 (nM) Mean, inhibition of 2-HG production) was 23 nM.

As usually defined, the IC50 is the concentration at which inhibition is half-maximal.
